Patent publication US20070148283A1, “Compositions providing a sensation substantially similar to that provided by menthol” (Cadbury Adams USA LLC, priority 2005, published 2007)

experiment: Amount in a composition achieving the characteristic cooling effect of menthol; type: in vivo; settings: amount present in a composition; equivalent amounts relative to menthol
Source text: For purposes of achieving the characteristic “cooling effect” of menthol, an equivalent amount of another compound sufficient to impart the characteristic “cooling effect” of menthol is about 50 ppm, preferably about 100 ppm or even 200 or 300 ppm of menthyl lactate, about 20 ppm, preferably about 40 ppm or even 50 or 75 ppm of monomenthyl succinate, and about 0.01 ppm, preferably about 0. 1 ppm or even 0.3 or 0.5 ppm of isopulegol. Using these relative conversions, one of ordinary skill in the art may readily substitute one or more compounds to achieve the relative “cooling effect” of menthol.

Row | Compound | amount sufficient to impart the characteristic cooling effect of menthol
1 | C=C(C)[C@@H]1CC[C@@H](C)C[C@H]1O [isopulegol] | about 0.01 ppm
2 | CC1CCC(C(C)C)C(O)C1 (stereo not drawn) [menthol] | ≥ 25 ppm
3 | CC1CCC(C(C)C)C(OC(=O)C(C)O)C1 (stereo not drawn) [menthyl lactate] | about 50 ppm
4 | CC(C)[C@@H]1CC[C@@H](C)C[C@H]1OC(=O)CCC(=O)O [monomenthyl succinate] | about 20 ppm

experiment: Amount in a composition achieving the characteristic nasal action of menthol; type: in vivo; settings: amount present in a composition; equivalent amounts relative to menthol
Source text: For purposes of achieving the characteristic “nasal action” of menthol, an equivalent amount of another compound sufficient to impart the characteristic “nasal action” of menthol is about 0.5 ppm, preferably about 1 ppm or even 2 or 3 ppm of methone, about 0.5 ppm, preferably about 1 ppm or even 2 or 3 ppm of isomethone, about 0.1 ppm, preferably about 0.2 ppm or even 0.3 or 0.5 ppm of eucalyptol, and about 10 ppm, preferably about 20 ppm or even 30 or 50 ppm of camphor. Using these relative conversions, one of ordinary skill in the art may readily substitute one or more compounds to achieve the relative “nasal action” of menthol.

Row | Compound | amount sufficient to impart the characteristic nasal action of menthol
5 | CC12CCC(CC1=O)C2(C)C (stereo not drawn) [camphor] | about 10 ppm
6 | CC12CCC(CC1)C(C)(C)O2 [eucalyptol] | about 0.1 ppm
7 | CC(C)[C@@H]1CC[C@H](C)CC1=O [isomethone, isomenthone] | about 0.5 ppm
8 | CC1CCC(C(C)C)C(O)C1 (stereo not drawn) [menthol] | ≥ 3 ppm
9 | CC(C)[C@@H]1CC[C@@H](C)CC1=O [methone, menthone] | about 0.5 ppm
